The target in one series is Prothrombin (Homo sapiens, UniProt P00734). Kind of series: Inhibitory activity against thrombin.
Series [1] is described as follows: Half life on i.v. administration of 2 mg/kg was measured in dog. The note with it: in vivo, iv. Type of series: ADME, organism-based, Canis lupus familiaris. Set-up: dose 2 mg/kg, route intravenous.
A short description of series [2]: Clearance on i.v. administration of 2 mg/kg was measured in dog. Type of series: ADME, organism-based, Canis lupus familiaris. Also noted: dose 2 mg/kg, route intravenous. The note with it: in vivo, iv.
Series [3] is described as follows: Vss on i.v. administration of 2 mg/kg was measured in dog. Set-up: dose 2 mg/kg, route intravenous. Particulars: in vivo, iv, read-out: Vss. Type of series: ADME, organism-based, Canis lupus familiaris.
The nature of series [4]: Bioavailability in dog. Type of series: ADME, organism-based, Canis lupus familiaris. Particulars: in vivo.
Series [5] can be described thus: Cmax on p.o. administration of 10 mg/kg was measured in dog. Type of series: ADME, organism-based, Canis lupus familiaris. Also noted: dose 10 mg/kg, route oral. Particulars: in vivo, po.
A further series is filed under the species Homo sapiens. Kind of series: Concentration of compound required to double the human activated partial thromboplastin time. Type of series: functional.
The next series concerns Caco-2. Kind of series: Apparent permeability coefficient (Papp) from the apical to basolateral side in the human Caco-2 monolayer was determined. It counts as functional. For orientation: Caco-2 cells form a polarised layer with tight junctions and transporters.

Each structure is given as a SMILES string. pKi: −log10 of the molar value.

Turning to `CCN(Cc1ccccc1)C(=O)c1cc(Cl)cc(OCCCONC(=N)N)c1`, the negative logarithm of the Ki (pKi) at Prothrombin was 7.04.

`CCCN(Cc1ccncc1)C(=O)c1cc(C)cc(OCCCONC(=N)N)c1` gave a pKi on Prothrombin of 7.14.

On to `CCCN(Cc1cccnc1)C(=O)c1cc(C)cc(OCCCONC(=N)N)c1`, for which the negative logarithm of the Ki (pKi) at Prothrombin is 7.28.

For `N=C(N)NOCCCOc1cc(Cl)cc(C(=O)N2CCCCCC2)c1`, the negative-log Ki (pKi) on Prothrombin is 6.33.

Regarding `N=C(N)NOCCCOc1cc(Cl)cc(C(=O)N(CCc2ccccn2)CC2CC2)c1`, the pKi on Prothrombin is 7.23.

In series [1], `Cc1cc(OCCCONC(=N)N)cc(C(=O)N(Cc2ccoc2)CC2CC2)c1` showed a half-life of 150 min. Besides, the clearance in series [2] amounted to 7.8 mL/min/kg. Also, the Vd in series [3] came out at 1.6 L/kg. Also, in series [4], the bioavailability is 68%. Moreover, the highest level in series [5] (Cmax) was 5.1 µM. This molecule also had a pKi on Prothrombin of 7.96.

With `CCCN(Cc1ccoc1)C(=O)c1cc(C)cc(OCCCONC(=N)N)c1`, the half-life in series [1] was 228 min. The same molecule displayed a clearance in series [2] of 10.1 mL/min/kg. In addition, the Vd in series [3] was 2.4 L/kg. The molecule also gave a bioavailability in series [4] of 62%. Besides, the Cmax in series [5] stood at 4.5 µM. Further, the pKi at Prothrombin was 8.05.

For `N=C(N)NOCCCOc1cc(Cl)cc(C(=O)N(CCc2cccnc2)CC2CC2)c1`, the pKi at Prothrombin was 7.33.

On to `N=C(N)NOCCCOc1cc(Cl)cc(C(=O)N2CCN(c3ccccc3)CC2)c1`, for which, at Prothrombin, the pKi was 5.54.

`CCSCCN(Cc1ccoc1)C(=O)c1cc(C)cc(OCCCON=C(N)N)c1` had a pKi on Prothrombin of 8.22.

For `Cc1cc(OCCCONC(=N)N)cc(C(=O)N(CCC(N)=O)Cc2ccoc2)c1`, the negative logarithm of the Ki (pKi) on Prothrombin is 6.96.

For `CCCN(CC1CCC1)C(=O)c1cc(C)cc(OCCCON=C(N)N)c1`, on Prothrombin, the pKi is 7.77.

For the molecule `CCN(C(=O)c1cc(C)cc(OCCCONC(=N)N)c1)C1CCCCC1`, the pKi on Prothrombin is 8.22.

`Cc1cc(OCCCON=C(N)N)cc(C(=O)N(Cc2ccoc2)CC2CC2)c1`: the 2 x APTT in the series filed under Homo sapiens was 8.4 µM. Further, in the series on Caco-2, the Activity turned out to be 3e-06 cm/s.

Molecule `N=C(N)NOCCCOc1cc(Cl)cc(C(=O)N(Cc2ccoc2)CC2CC2)c1` gave a negative-log Ki (pKi) at Prothrombin of 7.77.

`Cc1cc(OCC2(CONC(=N)N)CC2)cc(C(=O)N(Cc2ccoc2)CC2CC2)c1` gave a half-life in series [1] of 354 min. For the same molecule, the clearance in series [2] stood at 5.7 mL/min/kg. For the same molecule, in series [3], the Vd came to 2.5 L/kg. In series [4], this molecule had a bioavailability of 77%. This molecule registered a Cmax in series [5] of 4.1 µM. For the same molecule, the pKi at Prothrombin is 8.40.

Regarding `CCOC(=O)CCN(CC1CC1)C(=O)c1cc(C)cc(OCCCONC(=N)N)c1`, at Prothrombin, the negative logarithm of the Ki (pKi) is 7.19.

Molecule `CN(C(=O)c1cc(Cl)cc(OCCCONC(=N)N)c1)C1CCCC1` had a negative logarithm of the Ki (pKi) at Prothrombin of 6.43.

The molecule `C=CCN(C(=O)c1cc(C)cc(OCCCONC(=N)N)c1)C1CCCCC1` showed a negative-log Ki (pKi) at Prothrombin of 8.05.

`CCCN(CC1CCCC1)C(=O)c1cc(Cl)cc(OCCCONC(=N)N)c1` had a negative logarithm of the Ki (pKi) at Prothrombin of 7.42.

In the case of `Cc1cc(OCCCONC(=N)N)cc(C(=O)N(Cc2ccsc2)CC2CC2)c1`, the negative-log Ki (pKi) at Prothrombin was 7.51.

Consider `C=CCN(C(=O)c1cc(C)cc(OCCCON=C(N)N)c1)C1CCCC1`, for which the 2 x APTT in the series listed under Homo sapiens came out at 11.3 µM. In the series with Caco-2, the Activity is 4.86e-06 cm/s.

Turning to `CCCN(CC1CC1)C(=O)c1cc(Cl)cc(OCCCONC(=N)N)c1`, the negative logarithm of the Ki (pKi) on Prothrombin is 7.64.

For `Cc1cc(OCCCONC(=N)N)cc(C(=O)N(Cc2ccoc2)C2CCC2)c1`, the pKi at Prothrombin is 7.66.

With `N=C(N)NOCCCOc1cc(Cl)cc(C(=O)N2CCc3ccccc3C2)c1`, at Prothrombin, the negative-log Ki (pKi) is 6.77.

`N=C(N)NOCCCOc1cc(Cl)cc(C(=O)N2CCN(c3ccccn3)CC2)c1` showed a pKi on Prothrombin of 6.19.

Consider `CCCCN(Cc1ccoc1)C(=O)c1cc(C)cc(OCCCONC(=N)N)c1`, for which the negative-log Ki (pKi) on Prothrombin is 8.10.

In turn, `N=C(N)NOCCCOc1cc(Cl)cc(C(=O)N2CCC(Cc3ccccc3)CC2)c1` gave a pKi at Prothrombin of 5.82.

With `Cc1cc(OCCCON=C(N)N)cc(C(=O)N(Cc2ccoc2)CC2CCCCC2)c1`, the negative-log Ki (pKi) at Prothrombin is 7.68.

`N=C(N)NOCCCOc1cc(Cl)cc(C(=O)N(CCC(=O)O)CC2CC2)c1` had a negative-log Ki (pKi) on Prothrombin of 6.67.

At Prothrombin, `COC(=O)CCN(CC1CC1)C(=O)c1cc(Cl)cc(OCCCONC(=N)N)c1` had a pKi of 7.42.

With `COCCN(CC1CC1)C(=O)c1cc(Cl)cc(OCCCONC(=N)N)c1`, the negative logarithm of the Ki (pKi) on Prothrombin is 6.81.

Take `C=CCN(Cc1ccoc1)C(=O)c1cc(Cl)cc(OCCCONC(=N)N)c1`: on Prothrombin, the negative-log Ki (pKi) was 7.70.

Molecule `C[C@H](CS)C(=O)N1CCC[C@H]1C(=O)O` [CAPTOPRIL] gave a pKi at Prothrombin of 7.32.

In turn, `CCN(Cc1ccncc1)C(=O)c1cc(Cl)cc(OCCCONC(=N)N)c1` had a negative-log Ki (pKi) on Prothrombin of 5.80.

In turn, `CCCN(CC1CCC1)C(=O)c1cc(Cl)cc(OCCCON=C(N)N)c1` gave a pKi at Prothrombin of 7.80.

On to `N=C(N)NOCCCOc1cc(Cl)cc(C(=O)N2CCCCC2)c1`, for which the negative logarithm of the Ki (pKi) at Prothrombin is 6.06.

For `CCCN(Cc1ccc(F)cc1)C(=O)c1cc(C)cc(OCCCON=C(N)N)c1`, the pKi at Prothrombin was 7.68.

For the molecule `Cc1cc(OCCCONC(=N)N)cc(C(=O)N(Cc2ccncc2)CC2CC2)c1`, on Prothrombin, the pKi is 7.62.

Consider `Cc1cc(OCCCONC(=N)N)cc(C(=O)N(CCCCCC(N)=O)C2CCCCC2)c1`, for which the pKi at Prothrombin is 8.10.

On Prothrombin, `N=C(N)NOCCCOc1cc(Cl)cc(C(=O)N(CCN2CCOCC2)CC2CC2)c1` showed a negative-log Ki (pKi) of 6.80.

Take `N=C(N)NOCCCOc1cc(Cl)cc(C(=O)N(CCN2CCCC2)CC2CC2)c1`: on Prothrombin, the pKi was 6.69.

In the case of `C=CCN(Cc1cccs1)C(=O)c1cc(Cl)cc(OCCCONC(=N)N)c1`, the negative-log Ki (pKi) on Prothrombin was 6.83.

As for `CCCN(Cc1nccs1)C(=O)c1cc(C)cc(OCCCONC(=N)N)c1`, on Prothrombin, the negative-log Ki (pKi) is 6.71.

`Cc1cc(OCCCON=C(N)N)cc(C(=O)N(Cc2ccoc2)C(C)C)c1`: the negative logarithm of the Ki (pKi) at Prothrombin was 7.17.

In series [1], `C=CCN(C(=O)c1cc(C)cc(OCCCONC(=N)N)c1)C1CCCC1` had a half-life of 222 min. This molecule also showed a clearance in series [2] of 11.2 mL/min/kg. In addition, the Vd in series [3] worked out at 2.8 L/kg. The molecule also returned a bioavailability in series [4] of 89%. In series [5], this molecule returned a Cmax of 3.7 µM. This molecule also gave a pKi at Prothrombin of 8.00.

Regarding `Cc1cc(OCCCONC(=N)N)cc(C(=O)N(Cc2ccccn2)CC2CC2)c1`, the pKi at Prothrombin was 7.07.

On to `Cc1cc(OCCCON=C(N)N)cc(C(=O)N(CCC(C)C)Cc2ccoc2)c1`, for which the negative-log Ki (pKi) at Prothrombin is 8.15.

`Cc1cc(OCCCONC(=N)N)cc(C(=O)N(Cc2cccnc2)CC2CC2)c1` gave a pKi on Prothrombin of 7.47.

The molecule `COCCN(Cc1ccoc1)C(=O)c1cc(C)cc(OCCCON=C(N)N)c1` gave a negative-log Ki (pKi) at Prothrombin of 7.55.

As to `CCCN(Cc1ccoc1)C(=O)c1cc(C)cc(OCCCON=C(N)N)c1`, in the series listed under Homo sapiens, the 2 x APTT stood at 11.5 µM. Besides, the Activity in the series on Caco-2 is 4.05e-06 cm/s.

In turn, `CCCN(Cc1ccoc1)C(=O)c1cc(C)cc(OCC2(CON=C(N)N)CC2)c1` had a half-life in series [1] of 264 min. Further, in the series on Caco-2, the Activity came to 4.11e-06 cm/s. Besides, the clearance in series [2] worked out at 4.2 mL/min/kg. Further, the Vd in series [3] was 1.7 L/kg. In series [4], the bioavailability came out at 73%. Besides, in series [5], the Cmax came to 5.8 µM.

The molecule `CN(C(=O)c1cc(Cl)cc(OCCCON=C(N)N)c1)C1CCCCC1` had a negative-log Ki (pKi) at Prothrombin of 7.48.

In the series filed under Homo sapiens, `Cc1cc(OCC2(CON=C(N)N)CC2)cc(C(=O)N(Cc2ccoc2)CC2CC2)c1` yielded a 2 x APTT of 8.7 µM. Further, the Activity in the series on Caco-2 amounted to 2.17e-06 cm/s.

With `N=C(N)NOCCCOc1cc(Cl)cc(C(=O)N(CCc2ccncc2)CC2CC2)c1`, at Prothrombin, the pKi is 7.28.

The molecule `CCCN(Cc1ccccn1)C(=O)c1cc(C)cc(OCCCON=C(N)N)c1` showed a pKi at Prothrombin of 7.03.

As a reminder, the pKi is the negative decadic logarithm of the Ki, by convention in mol/L. Read a high pKi as a small Ki. In general, half-life refers to the time in which the quantity being followed falls by half. Low values mean fast loss, high ones slow loss. The term clearance denotes the rate of elimination divided by the concentration. A low value points to inefficient removal. As a reminder, the bioavailability is dose-corrected exposure relative to a reference, in per cent. A word on the Cmax: it is the maximum level reached in the sampled fluid or tissue.

The values are drawn from ChEMBL document CHEMBL1146801, “Oxyguanidines. Part 2: Discovery of a novel orally active thrombin inhibitor through structure-based drug design and parallel synthesis” (Bioorg Med Chem Lett, 2004).
